From article PMC9570898, “Comparing Variants of the Cell-Penetrating Peptide sC18 to Design Peptide-Drug Conjugates” (Molecules, 2022) come the findings set out here.

Residues, ends and D or L forms follow the SMILES beside them. No end group written: not given here. *: point of attachment. X1 = COc1cccc2c1C(=O)c1c(O)c3c(c(O)c1C2=O)C[C@@](O)(C(=O)CO)C[C@@H]3O[C@H]1C[C@H](NC(=O)CCN2C(=O)CC(*)C2=O)[C@H](O)[C@H](C)O1 A value given as a limit tells only on which side of the number the result lay.

Data set [1] relates to HeLa cells. Description: Fluorescence microscopy of intracellular distribution in HeLa cells. It counts as cell-based, human. Particulars: 30 min; for intracellular distribution of PDC: 5 µM conjugate, 37 °C, fluorescence microscopy; for intracellular accumulation / uptake pattern: 10 µM CF-labeled peptide, confocal fluorescence microscopy. The procedure:
Cells were seeded into 8-well plates (HeLa cells 35,000 and HFF-1 25,000 cells per well, respectively) and grown to 80–90% confluency. Cells were treated with 10 μM CF- or dox-labeled peptides in a serum-free medium for 30 min at 37 °C. Ten minutes prior to the end of the incubation time, nuclei were stained with Hoechst33342. The peptide solution was removed, and cells were washed five times with PBS and covered with fresh medium including FBS. Microscopic analysis was performed using an inverse confocal TCS SP8 microscope (Leica Microsystems, Wetzlar, Germany), equipped with a 63× oil-immersion objective. Images were recorded with LAS X software (LAS_X_Core_3.7.6_25997, Leica Microsystems, Wetzlar, Germany). For the GUV analysis and the uptake of the peptide-drug conjugates the Keyence fluorescence tabletop microscope BZ-X800E (Keyence, Osaka, Japan), with a 60× oil immersion lens was used. Images were recorded with Keyence software (BZ-800X_Analyzer 1.1.1.8, Keyence, Osaka: Japan) and evaluated with Fiji.
Figure 6 Fluorescence microscope analysis of 5 µM conjugates after 30 min of incubation at 37 °C in HeLa and HFF-1 cells. Red: peptides coupled to red fluorophore Doxorubicin; blue: Hoechst 33342 nuclear stain; BF: brightfield to identify living cells; scale bar is 20 µm.

Data set [2] deals with HeLa cells. The data set can be described thus: Cytotoxicity (resazurin) assay in HeLa cells. Particulars: 24 h; for EC50: 37 °C, 2.5-70 µM, Dox data not shown. On the procedure:
For cell viability assay, cells were (15,000 HeLa, 17,000 MCF-7 and 12,000 HFF-1 cells per well) seeded onto a 96-well plate and grown to 80–90% confluency. Cells were incubated with several peptide concentrations in a serum-free growth medium for 24 h under standard growth conditions. For the positive control, cells were treated with 70% EtOH for 7 min. After washing with DPBS, resazurin solution (10% in serum-free media, v/v) was incubated with the cells for 1 h under standard growth conditions. The cell viability was determined relative to untreated cells by measurement of the resorufin product at 595 nm (λex = 550 nm) on a Tecan infinite M200 plate reader (Tecan Group AG, Männedorf, Switzerland).
Figure 2 (A,B): Cytotoxicity profiles of the peptides in HeLa and HEK-293 cells. Cells were cultured and incubated at pH 7.4 for 24 h with different concentrations of peptide solutions. Untreated cells served as negative control; cells treated with 70% ethanol as positive control. Values from the positive control were subtracted from all data, and the untreated cells were set to 100%; assays were performed with n = 3 in triplicate. (C): Flow cytometry analysis of HeLa or HEK-293 cells after incubating 1 and 10 µM peptide solutions for 30 min at 37 °C; assays were conducted in triplicate n = 3. (D): Confocal laser scanning microscopy analysis of 10 µM CF-labeled peptides after 30 min of incubation in HeLa cells. Green: CF-labeled peptides; blue: Hoechst 33342 nuclear stain; scale bar is 10 µm.
Figure 5 (A): Cytotoxicity assay using HFF-1 cells. Different PDC concentrations were incubated with the cells for 24 h at 37 °C and a resazurin assay was conducted. (B): Dose-response curves for peptide drug conjugates were obtained using the resazurin assay. For this, HeLa cells were treated with various conjugate concentrations (2.5–70 µM) for 24 h at 37 °C. (C): Quantification of PDC internalization in HeLa cells; 10 µM PDC solutions were incubated with cells for 30 min at 37 °C and cells were inspected using a flow cytometer; assays were conducted in triplicate n = 3.

For data set [3], the system named is HeLa cells. The data set can be described thus: Cellular uptake by flow cytometry in HeLa cells. Particulars: 30 min; for cellular uptake: 1 and 10 µM CF-labeled peptide, 37 °C, serum-free medium. It counts as cell-based, human. The procedure:
(§1) Monolayer cellular uptake was quantified using flow cytometry. Cells were seeded onto a 24-well plate (HeLa: 90,000, HEK293: 100,000 and MCF-7 130,000 cells per well) and grown to 80–90% confluency. Then, cells were incubated with the labeled peptides/conjugates in a serum-free medium at 37 °C for various incubation times, and subsequently washed twice with PBS and detached with indicator-free trypsin resuspended in an indicator-free serum-containing medium. The cell suspension was transferred into a 96-well FACS plate and fluorescence was then measured by a Guava easyCyte flow cytometer (Merck, Darmstadt, Germany).The blue laser was used for all measurements, FSC (1137–1538), SSC (3020–4086), Grn-B (647–875) and Red-B (694–939). Cellular autofluorescence of untreated control cells was subtracted.
In general terms: Flow cytometry measures light scatter and fluorescence of single cells or particles in a stream.

For data set [4], the system named is MCF-7 cells. Description: Cell viability (resazurin) assay in MCF-7 cells at pH 7.4 or 6.8. Particulars: MCF-7 cells cultivated at pH 7.4 or 6.8, 24 h, various concentrations, triplicate n = 3. It counts as cell-based, human. On the procedure:
For pH-dependent studies, the cells were cultivated and incubated at pH 6.8 or 7.4, respectively.
Figure 1 (A,B): Cell-viability assays using MCF-7 cells. Cells were cultivated at pH 7.4 or pH 6.8, respectively, for 24 h using different concentrations of peptide solutions. […] (C): Cellular uptake of histidine peptides in MCF-7 cells.
On the technique in general: Alamar Blue is a resazurin reagent that responds to reducing activity.

Data set [5] concerns HEK293 cells. The data set can be described thus: Cellular uptake by flow cytometry in HEK293 cells. It counts as cell-based, human. Particulars: 1 and 10 µM CF-labeled peptide, 30 min, 37 °C, serum-free medium. The procedure:
as §1

Data set [6] concerns HEK-293 spheroids. Description: Flow cytometry of HEK-293 spheroids. Particulars: 10 µM CF-labeled peptides, 30 min or 1 h. Format: cell-based, human. On the procedure: For the preparation and seeding of spheroids, cells were washed and trypsinized as described above. Cells were transferred into a fresh 15 mL centrifuge tube and centrifuged for 5 min at 300× g and rt. The supernatant was removed carefully and the pellet was resuspended in an appropriate medium supplemented with FBS. Cells were counted and a cell mixture was prepared, which would be sufficient for 100 drops (3 mL). Within this mixture a total amount of 1.5 × 10^6 cells (HEK-293 and HeLa cells) and 20% (v/v) methylcellulose (1.2 mg/mL) were required. The missing volume was filled up with an appropriate medium containing FBS; 30 μL drops were pipetted into the inverted lid of a petri dish (15,000 cells per drop), the bottom was covered with PBS and spheroids were grown in hanging drops for two or three days at 37 °C and 5% CO2, respectively.
For flow cytometry studies with tumor spheroids, the spheroids were prepared and grown as described above (4.7). […] After the spheroids started to fall apart, 850 μL of medium with FBS (indicator free) was added and the spheroids were resuspended to generate a homogenous cell suspension; 200 μL of each sample were transferred into a fresh round-bottom 96-well plate and analyzed on a Guava® easyCyte flow cytometer (Merck, Darmstadt, Germany). […]

For data set [7], the system named is HFF-1 cells. The data set can be described thus: Cytotoxicity (resazurin) assay in HFF-1 cells. Format: cell-based, human. Particulars: 24 h treatment, different concentrations, lowest viability reached.
[8] abbreviates: triplicate n = 3, listed as sC18^ΔE.

For the compound `CC[C@H](C)[C@H](NC(=O)[C@H](CCCCN)NC(=O)[C@H](CC(N)=O)NC(=O)[C@H](CCCNC(=N)N)NC(=O)[C@H](Cc1ccccc1)NC(=O)[C@H](CCCCN)NC(=O)[C@H](CCCNC(=N)N)NC(=O)[C@H](CC(C)C)NC(=O)[C@H](CCCNC(=N)N)NC(=O)[C@H](CCCCN)NC(=O)[C@H](CCCNC(=N)N)NC(=O)[C@H](CC(C)C)NC(=O)CNC(=O)[C@@H](N)CSC1CC(=O)N(CCC(=O)N[C@H]2C[C@H](O[C@H]3C[C@](O)(C(=O)CO)Cc4c(O)c5c(c(O)c43)C(=O)c3c(OC)cccc3C5=O)O[C@@H](C)[C@H]2O)C1=O)C(=O)N[C@@H](CCCCN)C(=O)N[C@@H](CCCCN)C(N)=O` (stereo partly drawn) [PDC-2] (H-C(X1)GLRKRLRKFRNKIKK-NH2), the “intracellular distribution of PDC” value in data set [1] is recorded as “clustering inside the cytosol”. For the same compound, the concentration giving a half-maximal response (EC50) – broadly, the concentration at which the effect is half-maximal – in data set [2] (resazurin assay) was found to be 14.5 µM. For the same compound, the “PDC internalization” value in data set [3] (5 µM PDC (text; legend of Figure 5C: 10 µM), doxorubicin red fluorescence) was “enhanced compared to the other two”.
For the compound GLRKRLRKFRNKIKEK-NH2 [sC18], the “cytotoxicity” value in data set [4] is “slightly more toxic at higher concentrations”. In addition, the “cellular uptake” value in data set [5] (triplicate n = 3) is “to a little extent”; in data set [5] (setting [8]), “highly significant and enhanced internalization”; in data set [3] (triplicate n = 3), “to a little extent”; in data set [3] (setting [8]), “highly significant and enhanced internalization”. Besides, the “intracellular accumulation / uptake pattern” value is “far lower compared to the other two novel peptides” in data set [1]; “accumulated in a dot-like manner within the cell interior and did not reach the nuclei” in data set [1] (listed as sC18^ΔE). Also, the “accumulation in spheroids” value in data set [6] is given as “most efficient variants”. In data set [2] (concentration increased up to 100 µM, resazurin assay), the cell viability (as a rule, a read-out of living cells in per cent, often relative to untreated cells) at 100 µM is recorded as no less than 75%. Besides, the “concentration up to which no toxic effect was observed” value in data set [2] (pH 7.4, resazurin assay, n = 3 in triplicate) amounted to 50 µM.
As for `COc1cccc2c1C(=O)c1c(O)c3c(c(O)c1C2=O)C[C@@](O)(C(=O)CO)C[C@@H]3O[C@H]1C[C@H](N)[C@H](O)[C@H](C)O1.Cl` [Dox, doxorubicin hydrochloride, reference compound], in data set [7], the cell viability came to 72%. This compound registered an EC50 in data set [2] (resazurin assay) of 6.78 µM.
The compound `COc1cccc2c1C(=O)c1c(O)c3c(c(O)c1C2=O)C[C@@](O)(C(=O)CO)C[C@@H]3O[C@H]1C[C@H](NC(=O)CCN2C(=O)CC(SC[C@H](N)C(=O)NCC(=O)N[C@@H](CC(C)C)C(=O)N[C@@H](CCCNC(=N)N)C(=O)N[C@@H](CCCCN)C(=O)N[C@@H](CCCNC(=N)N)C(=O)N[C@@H](CC(C)C)C(=O)N[C@@H](CCCNC(=N)N)C(=O)N[C@@H](CCCCN)C(=O)N[C@@H](Cc3ccccc3)C(=O)N[C@@H](CCCNC(=N)N)C(=O)N[C@@H](CC(N)=O)C(=O)N[C@@H](CCCCN)C(N)=O)C2=O)[C@H](O)[C@H](C)O1` (stereo partly drawn) [PDC-3] (H-C(X1)GLRKRLRKFRNK-NH2) had an EC50 in data set [2] (resazurin assay) of 27 µM.
`CC[C@H](C)[C@H](NC(=O)[C@H](CCCCN)NC(=O)[C@H](CC(N)=O)NC(=O)[C@H](CCCNC(=N)N)NC(=O)[C@H](Cc1ccccc1)NC(=O)[C@H](CCCCN)NC(=O)[C@H](CCCNC(=N)N)NC(=O)[C@H](CC(C)C)NC(=O)[C@H](CCCNC(=N)N)NC(=O)[C@H](CCCCN)NC(=O)[C@H](CCCNC(=N)N)NC(=O)[C@H](CC(C)C)NC(=O)CNC(=O)[C@@H](N)CSC1CC(=O)N(CCC(=O)N[C@H]2C[C@H](O[C@H]3C[C@](O)(C(=O)CO)Cc4c(O)c5c(c(O)c43)C(=O)c3c(OC)cccc3C5=O)O[C@@H](C)[C@H]2O)C1=O)C(=O)N[C@@H](CCCCN)C(=O)N[C@@H](CCC(=O)O)C(=O)N[C@@H](CCCCN)C(N)=O` (stereo partly drawn) [PDC-1] (H-C(X1)GLRKRLRKFRNKIKEK-NH2): the “intracellular distribution of PDC” value in data set [1] was “more fluorescence was also measured within the nuclei”. The same compound came in with an EC50 in data set [2] (resazurin assay) of 15.3 µM.
